Assay results as given in paper PMC6830213, “High-throughput structures of protein–ligand complexes at room temperature using serial femtosecond crystallography” (IUCrJ, 2019).
Each block holds one molecule with its values, some of them ahead of it.

Key:
[1] = molecular target: T1, dehaloperoxidase B (DHP-B; DHP) (Amphitrite ornata, UniProt Q9NAV7); experiment: SFX crystal structure, room temperature, […] A; format: binding; conditions: 3-5 min, distal heme pocket, not bound to iron
T1 construct: homodimer in the asymmetric unit

[2] = molecular target: Dye-type peroxidase Aa from Streptomyces lividans (Streptomyces lividans); experiment: crystal structure; serial femtosecond crystallography at room temperature, microcrystals on silicon fixed-target chips, SACLA beamline BL2 EH3; two monomers (homodimer) in the crystallographic asymmetric unit
[3] = molecular target: the molecule itself; experiment: as above

Molecule: Oc1ccc(Cl)cc1Cl [2,4-dichlorophenol]
SFX crystal structure, room temperature, 1.85 A ([1]; crystals pH 6.0, soaked 5 mM, near-full occupancy in monomer B): DCP exhibited a binding site that was virtually identical to those previously observed

Molecule: Brc1ccc2[nH]ccc2c1 [5-bromoindole]
SFX crystal structure, room temperature, 1.85 A ([1]; crystals pH 6.0, soaked 50 mM, lower occupancy in second monomer): the 5BR complex was consistent with a computationally hypothesized binding site

stoichiometry N [2]: 2
Molecule: Dye-type peroxidase Aa from Streptomyces lividans (enzyme)

B1: Dehaloperoxidase B from Amphitrite ornata (enzyme)
chain: GFKQDIATLRGDLRTYAQDIFLAFLNKYPDEKRNFKNYVGKSDQELKSMAKFGDHTEKVFNLMMEVADRATDCVPLASDASTLVQMKQHSGLTTGNFEKLFVALVEYMRASGQSFDSQSWDRFGKNLVSALSSAGMK
notes: Dehaloperoxidase B (DHP-B), heme peroxidase from the marine annelid Amphitrite ornata; Heme protein; Crystallised with the small ligands DCP or 5BR soaked in; also called DHP-B; DHP; source: expressed and purified as described previously (McCombs, Moreno-Chicano et al., 2017)
stoichiometry N [3]: 2
